Molecules are shown by their SMILES. ≈ marks a conversion by molar mass, not a printed value. Calls of active or inactive are those of the source. The calls are words filed in the database; no cut-off is given here.

These results are taken from ChEMBL document CHEMBL5325407, “Structure-based development of potent Plasmodium falciparum M1 and M17 aminopeptidase selective and dual inhibitors via S1'-region optimisation” (Eur J Med Chem, 2023).

Data set [1] in a line: Inhibition of C-terminal 6-His tagged Plasmodium falciparum M1 aminopeptidase (195 to 1085 residues) expressed in Escherichia coli BL21(DE3) cells using H-Leu-NHMec as substrate assessed as apparent inhibition constant preincubated for 10 mins followed by substrate addition by spectrofluorimetric analysis. Conditions: read-out: Ki(app).
Data set [2] in a line: Inhibition of C-terminal 6-His tagged Plasmodium falciparum M17 aminopeptidase (85 to 605 residues) expressed in Escherichia coli BL21 (DE3) cells using H-Leu-NHMec as substrate assessed as apparent inhibition constant preincubated for 10 mins followed by substrate addition by spectrofluorimetric analysis. The conditions noted are these: read-out: Ki(app).
A further data set deals with Plasmodium falciparum. In words: Antiplasmodial activity against drug-sensitive Plasmodium falciparum 3D7 infected in Red blood cell assessed as growth inhibition measured after 72 hrs by LDH assay. Type of data set: functional, organism-based. Conditions: 3D7, Erythrocyte.
Data set [3] deals with Histone deacetylase 1 (Homo sapiens) (UniProt Q13547). In words: Inhibition of HDAC1 (unknown origin).
Data set [4] concerns the target Histone deacetylase 2 (Homo sapiens) (UniProt Q92769). In words: Inhibition of HDAC2 (unknown origin).
The target in data set [5] is Histone deacetylase 5 (Homo sapiens) (UniProt Q9UQL6). In words: Inhibition of HDAC5 (unknown origin).
The target of data set [6] is T1, Histone deacetylase 7 (Homo sapiens) (UniProt Q8WUI4).
T1 sequence (whole entry): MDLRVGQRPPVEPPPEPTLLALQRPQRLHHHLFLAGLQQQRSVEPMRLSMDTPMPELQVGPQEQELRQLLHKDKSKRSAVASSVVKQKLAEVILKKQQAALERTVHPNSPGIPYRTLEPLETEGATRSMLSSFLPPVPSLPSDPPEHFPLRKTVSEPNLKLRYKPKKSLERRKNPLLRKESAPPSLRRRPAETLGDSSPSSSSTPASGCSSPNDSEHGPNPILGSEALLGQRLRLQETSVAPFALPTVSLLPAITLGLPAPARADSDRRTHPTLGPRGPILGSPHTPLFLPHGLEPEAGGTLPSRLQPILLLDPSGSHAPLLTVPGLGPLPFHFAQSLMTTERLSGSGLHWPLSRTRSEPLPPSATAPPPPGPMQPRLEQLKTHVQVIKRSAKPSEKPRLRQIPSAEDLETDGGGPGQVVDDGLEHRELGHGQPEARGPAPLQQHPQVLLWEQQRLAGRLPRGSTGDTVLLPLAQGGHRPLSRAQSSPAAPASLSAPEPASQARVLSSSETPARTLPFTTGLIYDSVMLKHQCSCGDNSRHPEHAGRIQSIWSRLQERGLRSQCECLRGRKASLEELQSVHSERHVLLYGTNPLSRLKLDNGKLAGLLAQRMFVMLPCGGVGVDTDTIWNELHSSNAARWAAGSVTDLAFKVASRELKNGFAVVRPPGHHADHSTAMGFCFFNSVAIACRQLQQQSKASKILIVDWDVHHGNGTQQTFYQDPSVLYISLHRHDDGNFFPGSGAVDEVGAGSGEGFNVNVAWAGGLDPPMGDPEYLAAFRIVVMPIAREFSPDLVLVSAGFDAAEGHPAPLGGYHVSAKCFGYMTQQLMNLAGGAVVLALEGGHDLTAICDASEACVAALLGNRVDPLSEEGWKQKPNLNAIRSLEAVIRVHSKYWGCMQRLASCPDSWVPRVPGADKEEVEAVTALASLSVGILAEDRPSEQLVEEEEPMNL
In words: Inhibition of HDAC7 (unknown origin).

Data set [7] addresses T2, Histone deacetylase 8 (Homo sapiens) (UniProt Q9BY41).
T2 sequence (whole entry): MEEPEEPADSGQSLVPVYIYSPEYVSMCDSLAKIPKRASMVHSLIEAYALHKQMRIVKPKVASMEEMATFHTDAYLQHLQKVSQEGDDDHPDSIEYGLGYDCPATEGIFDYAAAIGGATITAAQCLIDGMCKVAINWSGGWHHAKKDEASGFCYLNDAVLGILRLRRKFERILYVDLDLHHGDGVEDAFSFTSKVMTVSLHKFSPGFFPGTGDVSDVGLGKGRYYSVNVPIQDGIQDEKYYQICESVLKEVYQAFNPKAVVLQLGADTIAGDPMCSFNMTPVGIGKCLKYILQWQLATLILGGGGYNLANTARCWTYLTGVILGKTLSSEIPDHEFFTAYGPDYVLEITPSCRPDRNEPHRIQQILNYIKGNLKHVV
In words: Inhibition of HDAC8 (unknown origin).

In data set [8] the target is Histone deacetylase 9 (Homo sapiens) (UniProt Q9UKV0). In words: Inhibition of HDAC9 (unknown origin).
For data set [9], the target named is T3, Polyamine deacetylase HDAC10 (Homo sapiens) (UniProt Q969S8).
T3 sequence (whole entry): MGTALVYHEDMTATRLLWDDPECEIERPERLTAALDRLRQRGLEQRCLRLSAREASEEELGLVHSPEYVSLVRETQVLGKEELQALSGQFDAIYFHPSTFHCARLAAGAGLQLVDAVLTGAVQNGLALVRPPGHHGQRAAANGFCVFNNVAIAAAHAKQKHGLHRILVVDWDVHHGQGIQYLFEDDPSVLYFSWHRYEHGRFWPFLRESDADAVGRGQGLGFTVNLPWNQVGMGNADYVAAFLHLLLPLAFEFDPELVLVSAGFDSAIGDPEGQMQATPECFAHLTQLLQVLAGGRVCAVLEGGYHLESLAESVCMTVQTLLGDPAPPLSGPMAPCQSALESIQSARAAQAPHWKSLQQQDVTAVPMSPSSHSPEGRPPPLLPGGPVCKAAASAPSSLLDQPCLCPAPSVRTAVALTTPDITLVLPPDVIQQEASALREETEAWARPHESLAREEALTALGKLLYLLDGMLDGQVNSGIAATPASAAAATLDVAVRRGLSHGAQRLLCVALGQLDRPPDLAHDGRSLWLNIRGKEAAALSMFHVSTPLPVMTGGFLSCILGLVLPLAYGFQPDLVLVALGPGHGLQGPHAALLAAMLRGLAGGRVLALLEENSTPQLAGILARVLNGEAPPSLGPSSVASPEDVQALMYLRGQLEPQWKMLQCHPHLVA
In words: Inhibition of HDAC10 (unknown origin).

Data set [10] concerns the target Endoplasmic reticulum aminopeptidase 1 (Homo sapiens) (UniProt Q9NZ08). In words: Inhibition of ERAP1 (unknown origin).
The target in data set [11] is Endoplasmic reticulum aminopeptidase 2 (Homo sapiens) (UniProt Q6P179). Nature of the data set: Inhibition of ERAP2 (unknown origin).
The target in data set [12] is Neutrophil collagenase (Homo sapiens) (UniProt P22894). Nature of the data set: Inhibition of MMP8 (unknown origin) at 10 uM relative to control.
Data set [13] has as its target Matrix metalloproteinase-9 (Homo sapiens) (UniProt P14780). Nature of the data set: Inhibition of MMP9 (unknown origin) at 10 uM relative to control.
Data set [14] has as its target Collagenase 3 (Homo sapiens) (UniProt P45452). In words: Inhibition of MMP13 (unknown origin) at 10 uM relative to control.
Data set [15] addresses Matrix metalloproteinase-15 (Homo sapiens) (UniProt P51511). In words: Inhibition of MMP15 (unknown origin) at 10 uM relative to control.
Data set [16] addresses Matrix metalloproteinase-24 (Homo sapiens) (UniProt Q9Y5R2). Nature of the data set: Inhibition of MMP24 (unknown origin) at 10 uM relative to control.
Data set [17] is described as follows: Kinetic solubility of the compound in 0.01 M HCL at pH 2.0 measured after 30 mins by nephelometric analysis. The data set is classed as physicochemical. Conditions: read-out: Kinetic_solubility.
Data set [18] can be described thus: Kinetic solubility of the compound in phosphate buffer at pH 6.5 measured after 30 mins by nephelometric analysis. The data set is classed as physicochemical. Conditions: read-out: Kinetic_solubility.
A short description of data set [19]: Metabolic stability in human liver microsomes assessed as half life measured for 60 mins in presence of NADPH. The data set is classed as ADME, Microsome. For orientation: Microsomes from liver hold many membrane-bound enzymes, among them those of drug oxidation.
The nature of data set [20]: Metabolic stability in mouse liver microsomes assessed as half life measured for 60 mins in presence of NADPH. Type of data set: ADME, Microsome.
A short description of data set [21]: Metabolic stability in human liver microsomes assessed as intrinsic clearance measured per mg protein for 60 mins in presence of NADPH. Conditions: read-out: CLH. The data set is classed as ADME, Microsome.
A short description of data set [22]: Metabolic stability in mouse liver microsomes assessed as intrinsic clearance measured per mg protein for 60 mins in presence of NADPH. The data set is classed as ADME, Microsome. The conditions noted are these: read-out: CLH.
The next data set concerns HEK293. Nature of the data set: Cytotoxicity against HEK293 cells assessed as inhibition of cell growth at 40 uM. The data set is classed as toxicity, cell-based. The conditions noted are these: human, hek293, 40 µM.

Chain of Histone deacetylase 2 (Homo sapiens) (Q92769 whole entry): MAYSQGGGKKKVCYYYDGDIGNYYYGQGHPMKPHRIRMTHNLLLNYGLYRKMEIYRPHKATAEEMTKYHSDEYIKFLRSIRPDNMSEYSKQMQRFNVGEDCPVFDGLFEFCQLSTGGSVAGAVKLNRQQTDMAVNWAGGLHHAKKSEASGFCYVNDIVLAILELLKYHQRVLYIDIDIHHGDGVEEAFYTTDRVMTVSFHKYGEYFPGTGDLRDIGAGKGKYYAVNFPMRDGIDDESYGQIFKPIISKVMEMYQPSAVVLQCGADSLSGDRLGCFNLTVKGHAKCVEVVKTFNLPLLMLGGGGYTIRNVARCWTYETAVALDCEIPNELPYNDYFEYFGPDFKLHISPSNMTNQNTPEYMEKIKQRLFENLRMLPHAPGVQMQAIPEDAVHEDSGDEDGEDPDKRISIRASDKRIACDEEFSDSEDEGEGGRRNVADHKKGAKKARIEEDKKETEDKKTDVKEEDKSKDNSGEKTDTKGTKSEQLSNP
Chain of Matrix metalloproteinase-24 (Homo sapiens) (Q9Y5R2 whole entry): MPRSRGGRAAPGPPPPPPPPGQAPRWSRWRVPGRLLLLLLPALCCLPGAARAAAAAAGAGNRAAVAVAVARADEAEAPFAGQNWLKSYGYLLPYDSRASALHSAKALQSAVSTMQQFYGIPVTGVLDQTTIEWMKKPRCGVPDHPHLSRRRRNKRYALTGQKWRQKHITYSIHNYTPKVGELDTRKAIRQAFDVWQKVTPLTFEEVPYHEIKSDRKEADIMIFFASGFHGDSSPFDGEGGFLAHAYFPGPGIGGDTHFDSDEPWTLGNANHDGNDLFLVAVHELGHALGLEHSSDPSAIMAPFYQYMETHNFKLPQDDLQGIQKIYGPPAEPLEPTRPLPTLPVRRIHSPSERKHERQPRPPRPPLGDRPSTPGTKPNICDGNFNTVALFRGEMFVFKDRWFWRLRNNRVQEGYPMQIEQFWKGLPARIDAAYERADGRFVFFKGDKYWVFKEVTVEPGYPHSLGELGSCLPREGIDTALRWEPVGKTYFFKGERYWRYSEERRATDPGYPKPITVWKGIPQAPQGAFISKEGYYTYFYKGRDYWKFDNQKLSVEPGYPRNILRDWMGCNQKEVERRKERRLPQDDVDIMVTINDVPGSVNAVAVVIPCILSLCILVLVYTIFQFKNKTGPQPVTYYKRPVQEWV
Chain of Histone deacetylase 1 (Homo sapiens) (Q13547 whole entry): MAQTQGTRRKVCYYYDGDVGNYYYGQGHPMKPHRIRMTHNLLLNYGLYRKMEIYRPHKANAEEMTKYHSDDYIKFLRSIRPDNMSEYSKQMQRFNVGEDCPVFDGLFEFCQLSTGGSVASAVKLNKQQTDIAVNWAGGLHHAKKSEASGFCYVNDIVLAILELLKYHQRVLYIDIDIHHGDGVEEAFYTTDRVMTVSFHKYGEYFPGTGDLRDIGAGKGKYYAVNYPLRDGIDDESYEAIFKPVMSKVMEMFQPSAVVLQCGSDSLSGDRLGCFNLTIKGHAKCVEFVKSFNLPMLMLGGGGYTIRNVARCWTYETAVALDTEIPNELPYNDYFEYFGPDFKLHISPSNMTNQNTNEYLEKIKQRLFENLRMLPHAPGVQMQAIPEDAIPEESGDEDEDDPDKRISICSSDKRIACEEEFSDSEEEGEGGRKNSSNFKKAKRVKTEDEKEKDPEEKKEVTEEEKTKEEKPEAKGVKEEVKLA
Chain of Matrix metalloproteinase-9 (Homo sapiens) (P14780 whole entry): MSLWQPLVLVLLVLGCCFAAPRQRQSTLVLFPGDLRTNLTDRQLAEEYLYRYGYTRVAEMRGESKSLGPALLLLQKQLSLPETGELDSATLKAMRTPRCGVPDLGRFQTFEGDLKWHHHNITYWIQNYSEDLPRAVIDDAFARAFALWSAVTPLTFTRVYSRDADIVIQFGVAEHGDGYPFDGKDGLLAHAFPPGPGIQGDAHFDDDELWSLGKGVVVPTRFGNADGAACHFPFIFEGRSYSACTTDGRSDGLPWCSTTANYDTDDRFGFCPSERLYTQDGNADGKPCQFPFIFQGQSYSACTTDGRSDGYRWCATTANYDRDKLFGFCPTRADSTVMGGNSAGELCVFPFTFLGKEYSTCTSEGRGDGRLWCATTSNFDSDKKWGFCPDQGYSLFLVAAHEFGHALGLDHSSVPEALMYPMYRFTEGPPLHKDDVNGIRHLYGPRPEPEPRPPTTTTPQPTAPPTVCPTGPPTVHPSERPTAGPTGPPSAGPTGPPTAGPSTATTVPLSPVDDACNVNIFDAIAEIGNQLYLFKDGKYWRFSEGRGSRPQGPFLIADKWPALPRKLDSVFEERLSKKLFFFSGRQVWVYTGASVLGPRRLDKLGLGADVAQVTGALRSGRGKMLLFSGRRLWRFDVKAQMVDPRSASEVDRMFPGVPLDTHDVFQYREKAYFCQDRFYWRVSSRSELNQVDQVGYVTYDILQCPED
Chain of Histone deacetylase 5 (Homo sapiens) (Q9UQL6 whole entry): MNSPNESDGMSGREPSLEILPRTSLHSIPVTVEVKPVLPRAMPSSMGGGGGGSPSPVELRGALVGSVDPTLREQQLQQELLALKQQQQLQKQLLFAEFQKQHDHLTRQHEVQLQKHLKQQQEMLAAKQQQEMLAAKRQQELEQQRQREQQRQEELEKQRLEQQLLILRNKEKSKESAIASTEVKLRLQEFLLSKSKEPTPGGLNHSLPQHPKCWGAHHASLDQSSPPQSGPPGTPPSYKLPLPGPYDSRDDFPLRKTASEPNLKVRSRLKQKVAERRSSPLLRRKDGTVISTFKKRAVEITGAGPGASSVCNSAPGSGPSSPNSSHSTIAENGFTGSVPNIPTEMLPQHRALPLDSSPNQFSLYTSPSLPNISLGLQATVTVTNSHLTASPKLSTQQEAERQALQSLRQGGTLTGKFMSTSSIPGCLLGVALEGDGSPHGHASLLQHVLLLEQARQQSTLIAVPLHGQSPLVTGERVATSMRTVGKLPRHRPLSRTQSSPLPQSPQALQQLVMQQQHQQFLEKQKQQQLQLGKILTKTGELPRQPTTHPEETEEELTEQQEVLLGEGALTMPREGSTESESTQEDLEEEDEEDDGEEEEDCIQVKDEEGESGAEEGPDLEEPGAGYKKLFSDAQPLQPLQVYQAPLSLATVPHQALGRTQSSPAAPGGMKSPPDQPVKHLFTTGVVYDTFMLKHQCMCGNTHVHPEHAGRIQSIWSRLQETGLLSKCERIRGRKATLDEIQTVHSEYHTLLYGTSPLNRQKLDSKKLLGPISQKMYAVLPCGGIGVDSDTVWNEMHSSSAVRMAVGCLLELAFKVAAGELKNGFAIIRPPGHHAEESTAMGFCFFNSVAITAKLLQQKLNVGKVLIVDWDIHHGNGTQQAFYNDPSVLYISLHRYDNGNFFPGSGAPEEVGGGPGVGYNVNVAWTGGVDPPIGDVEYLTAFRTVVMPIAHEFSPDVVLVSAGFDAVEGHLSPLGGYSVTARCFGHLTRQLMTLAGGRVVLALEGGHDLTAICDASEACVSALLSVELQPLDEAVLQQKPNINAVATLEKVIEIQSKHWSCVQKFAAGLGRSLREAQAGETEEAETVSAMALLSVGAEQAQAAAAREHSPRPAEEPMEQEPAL
Chain of Histone deacetylase 9 (Homo sapiens) (Q9UKV0 whole entry): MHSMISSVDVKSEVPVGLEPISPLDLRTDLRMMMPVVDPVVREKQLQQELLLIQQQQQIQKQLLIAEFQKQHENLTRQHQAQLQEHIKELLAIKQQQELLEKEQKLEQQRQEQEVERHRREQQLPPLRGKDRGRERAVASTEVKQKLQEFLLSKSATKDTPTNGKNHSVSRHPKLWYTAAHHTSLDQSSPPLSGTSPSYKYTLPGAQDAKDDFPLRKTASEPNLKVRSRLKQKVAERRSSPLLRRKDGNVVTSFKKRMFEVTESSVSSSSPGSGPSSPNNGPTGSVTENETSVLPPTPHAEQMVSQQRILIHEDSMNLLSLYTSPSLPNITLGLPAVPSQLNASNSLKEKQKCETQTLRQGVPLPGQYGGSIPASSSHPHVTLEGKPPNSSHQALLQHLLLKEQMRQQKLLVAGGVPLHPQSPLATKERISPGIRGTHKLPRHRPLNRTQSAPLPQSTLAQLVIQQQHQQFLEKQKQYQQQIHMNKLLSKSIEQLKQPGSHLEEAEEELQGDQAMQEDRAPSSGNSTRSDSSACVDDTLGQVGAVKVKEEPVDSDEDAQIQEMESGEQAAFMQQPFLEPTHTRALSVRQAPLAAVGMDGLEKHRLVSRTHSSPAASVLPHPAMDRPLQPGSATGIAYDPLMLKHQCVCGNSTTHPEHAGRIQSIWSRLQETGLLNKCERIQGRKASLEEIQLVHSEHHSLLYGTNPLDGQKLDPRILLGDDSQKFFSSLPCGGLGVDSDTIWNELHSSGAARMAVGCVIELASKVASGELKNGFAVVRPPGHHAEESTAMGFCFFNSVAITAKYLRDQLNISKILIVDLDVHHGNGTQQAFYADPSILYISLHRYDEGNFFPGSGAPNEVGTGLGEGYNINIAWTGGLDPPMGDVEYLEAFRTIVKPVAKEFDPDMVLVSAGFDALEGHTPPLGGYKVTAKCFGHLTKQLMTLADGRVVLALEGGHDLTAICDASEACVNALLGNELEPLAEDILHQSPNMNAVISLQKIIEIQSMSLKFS
Chain of Neutrophil collagenase (Homo sapiens) (P22894 101-467 limits assumed): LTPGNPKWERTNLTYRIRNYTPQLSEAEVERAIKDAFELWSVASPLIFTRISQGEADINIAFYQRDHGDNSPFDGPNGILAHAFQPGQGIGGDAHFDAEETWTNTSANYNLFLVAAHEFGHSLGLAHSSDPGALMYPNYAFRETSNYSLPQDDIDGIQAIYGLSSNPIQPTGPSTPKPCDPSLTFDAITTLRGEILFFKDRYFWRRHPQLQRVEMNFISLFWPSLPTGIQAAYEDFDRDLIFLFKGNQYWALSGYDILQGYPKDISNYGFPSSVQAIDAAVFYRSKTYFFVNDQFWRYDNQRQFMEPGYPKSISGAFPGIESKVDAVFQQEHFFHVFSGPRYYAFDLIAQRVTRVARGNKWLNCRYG

What is called EC50 is the concentration giving half of the maximal effect. A word on the inhibition: it is the share of the control response that was lost under treatment. A word on the half-life: it is the time in which the quantity being followed falls by half. On to `O=C(CNc1ccccc1)NC(C(=O)NO)c1ccc(-c2cc(F)c(F)c(F)c2)cc1` (centres undefined), for which the Ki in data set [1] came out at 66 nM; in data set [2], 57 nM. The concentration giving a half-maximal response (EC50) in the data set with Plasmodium falciparum was determined as 170 nM. The inhibition entry in [3], in data set [4], in data set [5], in data set [6], in data set [7] and in data set [8] was “inactive” throughout. Also, the inhibition entry in data set [9], in data set [10] and in data set [11] was “inactive” each time. Moreover, the inhibition in data set [12], in [13], in data set [14], in data set [15] and in data set [16] was above 50% in each case. Moreover, the solubility kinetic at 0.5 h in data set [17] came to 3.1 µg/mL (≈ 7.22 µM); in data set [18], 1.6 µg/mL (≈ 3.73 µM). The values for the half-life in data set [19] and in [20] were 1.77 h and 1.75 h, respectively. In addition, the microsomal CLint in data set [21] is 16 µL/min/mg; in data set [22], 17 µL/min/mg. For the same compound, the Activity result in the data set with HEK293 was “Non-Toxic”.
